Results from PubChem BioAssay (NCI).
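These data come from cells grown in 96-well plates and exposed to compound for 48 hours at five concentrations. Here, GI50 denotes the concentration required for 50% inhibition of growth. At the TGI there is no net growth.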

test system: MDA-MB-435; test: inhibition of tumour cell growth, NCI panel, 48 h

SMILES	GI50	TGI
CC1(C)C(=O)/C(=C\c2cccnc2)C[C@]2(C)[C@H]3CC[C@@H]4[C@H]5[C@H](C(=O)/C=C/c6cccnc6)CC[C@]5(C(=O)O)CC[C@@]4(C)[C@]3(C)CC[C@@H]12	3.2 µM	12.9 µM
COc1cc2ncnc(-n3ncc4cc(NC(=O)Nc5ccccc5)ccc43)c2cc1OC	1.4 µM	33.9 µM
COc1ccc(C(=O)c2cc(OC)c(OC)c(OC)c2)cc1/C=C/C(=O)c1ccc(F)cc1	2.88 µM	13.6 µM
OCC1OC(n2cnc3c2NC=NC[C@H]3O)C(Cl)C1O (stereo not given in full)		> 100 µM
COc1ccc(C2=C(Cl)c3cc(OC)c(OC)cc3C2Cl)cc1 (stereo not given)		28.5 µM
COc1ccc(-c2[nH]c3ccc(OC)cc3c2/C=C(\C#N)S(=O)(=O)c2ccccc2)cc1	0.272 µM	> 100 µM
O=c1cc(NCC(O)CN2CCCC2)n(Cc2ccccc2)c(=O)n1Cc1ccccc1 (stereo not given)	26.7 µM	65.8 µM
c1ccc(Sc2ccc(Cc3nc4cc5ccccc5cc4[nH]3)cc2)cc1	11.9 µM	> 67.7 µM
CCc1nc2cc(F)c(/C=C/C(=O)NO)cc2c(=O)n1CCc1ccccc1	0.445 µM	11.5 µM
COc1cc(OC)c(C(=O)/C=C/c2cccc(C(F)(F)F)c2)c(OC)c1	1.61 µM	6.57 µM
C/C(=N\Nc1ccc(Cl)cn1)c1ccc2ccccc2n1	4.45 µM	> 100 µM
CC1=C(/C=C/Cl)CC(Cl)C(C)(Cl)C1 (stereo not given)		> 100 µM
COc1cc2c(cc1OCCCCC(=O)Nc1cc3c4ccccc4ccc3c3ccccc13)N=C[C@@H]1CCCN1C2=O	5.44 µM	> 92.9 µM
CN1CCc2nc(N)nc(-c3nc(N)nc4c3CN(C)CC4)c2C1		> 100 µM
COc1c2c(cc3c1OCO3)[C@]13C=C[C@H](OC)C[C@H]1N(C2)CC3O (stereo not given in full)		> 100 µM
C=C1C(=O)O[C@H]2[C@H]1CC/C(COC(=O)NCCCCNC(=O)OC/C1=C/CC[C@@]3(C)O[C@H]3[C@H]3OC(=O)C(=C)[C@@H]3CC1)=C\CC[C@@]1(C)O[C@@H]21	1.24 µM	3.41 µM
COc1ccc(C[N+](C)(C)N)cc1OC	> 100 µM	> 100 µM
COc1ccc(-c2cc(-c3cc(C)cc(Br)c3O)no2)cc1		> 100 µM
COc1c(C(=O)/C=C/c2ccccc2)c(O)cc2occc12	3.21 µM	13.2 µM
CC(C)c1c(O)c(O)c2c(c1O)C(=O)C(O)=C1C(C)(C)CCC[C@@]12C		10.1 µM
NS(=O)(=O)c1ccc(-c2ccc3c(NC(=O)C4CC4)n[nH]c3c2)cc1	> 25 µM	> 25 µM

SMILES	GI50	TGI
COc1cc2c3c(n(CCCN)c(=O)c2cc1OC)-c1ccc(C#N)cc1C3=O	18.6 µM	39.9 µM
C=CCCCCC/C=C\[C@@H](O)C#CC#C/C=C/CO	68.8 µM	> 100 µM
CCCCC(CC)COC(=O)C[N+](C)(C)CCOC(c1ccccc1)c1ccccc1 (stereo not given)	1.71 µM	3.09 µM
N#Cc1cc(-c2cc3ccccc3o2)oc1N	3.69 µM	16.9 µM
Cc1cc(C(=O)Nc2ccc3cc(CN4CCOCC4)ccc3n2)c(C)n1-c1ccccc1	1.38 µM	5.22 µM
O=S(=O)(c1ccc(NC(=S)NC23CC4CC(CC(C4)C2)C3)cc1)N1CCCCC1	3.49 µM	> 100 µM
Cc1cc(NC(=S)SCc2ccc(F)cc2)c([N+](=O)[O-])cc1C		73.2 µM
COc1ccc(C(=O)c2cc(C)c(OC)c(C)c2)cc1OC(=O)CCl	< 0.01 µM	< 0.01 µM
NC(=O)c1cc(Cl)ccc1NC(=O)/C=C/c1ccccc1	0.618 µM	3.53 µM
O=C1/C(=C(/c2ccccc2)N2CCOCC2)Cc2ccccc21	2.17 µM	6.87 µM
CC1=CC(=O)C=CC1=O	12.3 µM	25.4 µM
CCCC(CCC)NCC(O)c1cc(-c2ccc(C(F)(F)F)cc2)nc(C(F)(F)F)c1 (stereo not given)	1.96 µM	3.74 µM
CC12OC(C(=O)C13CC3)C1C(=O)c3ccc4c(ccc5ccccc54)c3C(=O)C12 (stereo not given)	35.2 µM	> 100 µM
CN(C)CCNc1ccc(CO)c2oc3ccc(O)cc3c(=O)c12		27.1 µM
Cc1ccc(NC(=O)c2cccc(C(C)(C)C#N)c2)cc1Nc1ccc2ncn(C)c(=O)c2c1	0.0625 µM	> 100 µM
Cc1cc2ncnn2cc1Nc1ncc2c(n1)n(C1CCOCC1)c(=O)n2C	8.01 µM	> 100 µM
Cc1ccc(N=C/C=C(\Nc2ccc(C)cc2)c2ccc(Cl)cc2)cc1	2.82 µM	12 µM
COCC[C@H]1CCC/C=C/[C@@H]2C[C@H](O)C[C@H]2[C@H](O)/C=C/C(=O)O1	0.0595 µM	> 100 µM
Nc1ccccc1C#C/C=C\C#Cc1ccccc1N	1.43 µM	4.58 µM
COC(=O)Nc1nc2ccc(C3(c4ccc(F)cc4)OCCO3)cc2[nH]1	0.0436 µM	0.238 µM
O=C(Nc1n[nH]c2cc(-c3ccccc3)ccc12)C1CC1	0.721 µM	> 25 µM

test system: DMS 273 small cell lung; test: inhibition of tumour cell growth, NCI panel, 48 h

SMILES	TGI
Cn1cc(C2(C)CC(C)(C)c3c2n(C)c2ccccc32)c2ccccc21 (stereo not given)	> 100 µM
COc1ccc(C2=C(Cl)c3cc(OC)c(OC)cc3C2Cl)cc1 (stereo not given)	39.5 µM
O=C(/C=C/c1ccc(Cl)c(Cl)c1)c1ccc2ccccc2c1	> 100 µM
Cc1cc(NS(=O)(=O)c2ccc(Nc3c4ccccc4nc4c(C(=O)N5CCN(CCO)CC5)cccc34)cc2)no1	> 100 µM
CCCN(CCC)C(=O)c1c([N+](=O)[O-])cc(C(F)(F)F)cc1[N+](=O)[O-]	> 100 µM
c1ccc(C2N3CCCCC3[C@@H]3c4[nH]c5ccccc5c4CCN23)nc1 (stereo not given in full)	> 100 µM
CCCCNC1CCCCC[C@H]1O (stereo not given in full)	> 100 µM
COc1ccc2c3c([nH]c2c1[N+](=O)[O-])C(C)N(C)CC3 (stereo not given)	> 100 µM
COc1cc(/C=C/c2ccc(OC)c(O)c2)cc(OC)c1	34.1 µM
O=C(Nc1ccccc1-c1nc2ccccc2[nH]c1=O)c1ccccc1	52.6 µM
